Here are results for 30 molecules from US4497822A, “Insecticidal N-benzoyl-N'-phenyl-N'-(R-thio)ureas” (Shell Oil Company, priority 1982, dated 1985).

In assay [1] the test system is Spodoptera littoralis larvae. Put plainly: Insecticidal activity, sprayed diet (Test 1 (a)), toxicity vs parathion. The class given is in vivo, Egyptian cotton leafworm (Spodoptera littoralis). Conditions: second instar larvae; mortality 7 days after spraying; 50% mortality basis; standard parathion = 100. On the procedure: (§1) The insecticidal and ovicidal activities of the compounds of the invention were assessed employing the pests, Egyptian cotton leafworm (Spodoptera littoralis, S.l.), mosquito (Aedes aegypti, A.a.) and eggs of Spodoptera littoralis, S.l.ov.
(§2) The test methods used for each species are described below. In each case the tests were conducted under normal insectary conditions (28° C.[…]; fluctuating light and humidity).
(§3) In each instance, the toxicity of the compound of the invention was compared to that of a standard pesticide (parathion), its relative toxicity then being expressed in terms of the relationship between the amount of compound of the invention and the amount of the standard pesticide required to produce the same percentage (50%) of mortality in the test insect. By assigning the standard pesticide an arbitrary rating of 100, the toxicities of the compounds of the invention were expressed in terms of the toxicity indices, which compares the toxicity of the compounds of the invention with that of the standard pesticide.
(a) Spodoptera littoralis--A solution or suspension of the test compound was made up over a range of concentrations in 10% acetone/water containing 0.025% Triton X100 (as surfactant). These solutions were sprayed using a logarithmic spraying machine onto petri dishes containing a nutritious diet on which the Spodoptera littoralis larvae had been reared. When the spray deposit had dried each dish was infested with 10 second instar larvae. Mortality assessments were made 7 days after spraying.

In assay [2] the test system is eggs of Spodoptera littoralis. Description: Ovicidal activity, sprayed eggs (Test 1 (c)), toxicity vs parathion. The conditions noted are these: eggs less than 24 hours old; approximately five days; 50% mortality basis; standard parathion = 100. The class given is in vivo, Egyptian cotton leafworm (Spodoptera littoralis). On the procedure:
as §1, §2
as §3, with “pesticide. That is to say, a test compound having a Toxicity Index of 50 would be half as active, while one having a Toxicity Index of 200 would be twice as active as the standard pesticide.” for “pesticide.”
(c) Spodoptera littoralis (ovicide)--Solutions as described in (a) above were prepared. Eggs less than 24 hours old were obtained as follows. Adult Spodoptera littoralis were held in large plastic cylinders containing blotting paper on which the moths laid their batches of eggs. Egg batches containing approximately 60-70 eggs were cut from the blotting paper with a 1 cm surround. These were placed, eggs uppermost, on filter paper in the deeper half of 5 cm disposable petri dishes and each batch of eggs was then sprayed with a different test solution or the control solution. The dishes were covered until the control eggs had hatched, approximately five days. The percentage ovicidal mortality was then calculated.

The test system of the next assay is Aedes aegypti larvae. Put plainly: Insecticidal activity, larvae in treated water (Test 1 (b)), toxicity vs parathion. It counts as in vivo, mosquito (Aedes aegypti). Set-up: key: Toxicity Index: parathion = 100; 200 = twice as active, 50 = half. Conditions: early fourth instar larvae; final mortality when all larvae emerged as adults or died; 50% mortality basis; standard parathion = 100. On the procedure: as §1, §2
as §3, with “pesticide. That is to say, a test compound having a Toxicity Index of 50 would be half as active, while one having a Toxicity Index of 200 would be twice as active as the standard pesticide.” for “pesticide.”
(b) Aedes aegypti--Several solutions of the test compound of varying concentration were prepared in acetone. 100 microliter quantities were added to 100 milliliters of tap water, the acetone being allowed to evaporate off. Ten early fourth instar larvae were placed in the test solution; after 48 hours the (surviving) larvae were fed with animal feed pellets, and the final percentage mortality assessed when all the larvae had either pupated and emerged as adults or died.

As for `O=C(NC(=O)N(SC(Cl)(Cl)Cl)c1ccc(C(F)(F)F)cc1)c1c(F)cccc1F` [Example 6, 2,6-Difluoro-N-[[[(trichloromethyl)thio]-N-[4-(trifluoromethyl)phenyl]amino]carbonyl]benzamide], in assay [1], the “Toxicity Index S.l.” value was determined as 260. Further, the “Toxicity Index S.l.ov.” value in assay [2] was 400. Further, the “Toxicity Index A.a.” value in the assay on Aedes aegypti larvae was 34.
`O=C(NC(=O)N(Sc1ccccc1[N+](=O)[O-])c1ccc(C(F)(F)F)cc1)c1c(F)cccc1F` [Example 20]: the “Toxicity Index S.l.” value in assay [1] stood at 160. Further, in assay [2], the “Toxicity Index S.l.ov.” value was determined as 1800. Also, the “Toxicity Index A.a.” value in the assay on Aedes aegypti larvae was 180.
For the molecule `Cc1ccc(SN(C(=O)NC(=O)c2c(F)cccc2F)c2ccc(Cl)cc2)cc1` [Example 11], the “Toxicity Index S.l.” value in assay [1] was 23. The “Toxicity Index S.l.ov.” value in assay [2] is 680. The “Toxicity Index A.a.” value in the assay on Aedes aegypti larvae amounted to 25.
Taken in the same sequence, the figures for `O=C(NC(=O)N(Sc1ccc(Cl)cc1)c1ccc(C(F)(F)F)cc1)c1c(F)cccc1F` [Example 27] were 220, 2200 and 21.
Taken in the same sequence, the figures for `Cc1ccc(SN(C(=O)NC(=O)c2ccccc2Cl)c2ccc(OC(F)(F)F)cc2)cc1` [Example 23] were 140, 1500 and 145.
Turning to `O=C(NC(=O)N(Sc1ccc([N+](=O)[O-])cc1[N+](=O)[O-])c1ccc(C(F)(F)F)cc1)c1c(F)cccc1F` [Example 22], the “Toxicity Index S.l.” value in assay [1] is listed as 220. Further, the “Toxicity Index S.l.ov.” value in assay [2] is given as 2300. Also, the “Toxicity Index A.a.” value with Aedes aegypti larvae is 51.
As to `O=C(NC(=O)N(Sc1ccccc1[N+](=O)[O-])c1ccc(Oc2ccc(C(F)(F)F)cc2Cl)cc1)c1ccccc1Cl` [Example 35], the “Toxicity Index S.l.” value in assay [1] is reported as 2500. The “Toxicity Index S.l.ov.” value in assay [2] was found to be 0. For the same molecule, the “Toxicity Index A.a.” value in the assay on Aedes aegypti larvae came out at 82.
Taken in the same sequence, the figures for `O=C(NC(=O)N(Sc1ccc(Cl)cc1)c1ccc(Oc2ccc(C(F)(F)F)cc2Cl)cc1)c1ccccc1Cl` [Example 30] were 670, 0 and 220.
On to `O=C(NC(=O)N(Sc1ccc([N+](=O)[O-])cc1)c1ccc(OC(F)(F)F)cc1)c1ccccc1Cl` [Example 24], for which the “Toxicity Index S.l.” value in assay [1] was 54. Moreover, the “Toxicity Index S.l.ov.” value in assay [2] was determined as 11. The “Toxicity Index A.a.” value in the assay with Aedes aegypti larvae worked out at 31.
As for `O=C(NC(=O)N(Sc1ccccc1[N+](=O)[O-])c1ccc(Cl)cc1)c1c(F)cccc1F` [Example 5, N-[[[4-Chlorophenyl]-N-[(2-nitrophenyl)thio]amino]carbonyl]-2,6-difluorobenzamide], the “Toxicity Index S.l.” value in assay [1] is given as 90. Also, in assay [2], the “Toxicity Index S.l.ov.” value is given as 0-4. Further, the “Toxicity Index A.a.” value in the assay on Aedes aegypti larvae worked out at 220.
Taken in the same sequence, the figures for `Cc1ccccc1SN(C(=O)NC(=O)c1c(F)cccc1F)c1ccc(Cl)cc1` [Example 9] were 43, 1400 and 31.
As for `O=C(NC(=O)N(Sc1ccccc1)c1ccc(Oc2ccc(C(F)(F)F)cc2Cl)cc1)c1ccccc1Cl` [Example 29], the “Toxicity Index S.l.” value in assay [1] was 930. For the same molecule, the “Toxicity Index S.l.ov.” value in assay [2] turned out to be 0. The “Toxicity Index A.a.” value in the assay on Aedes aegypti larvae came out at 330.
As for `O=C(NC(=O)N(SC(Cl)(Cl)Cl)c1ccc(Oc2ccc(C(F)(F)F)cc2Cl)cc1)c1ccccc1Cl` [Example 7, 2-Chloro-N-[[[4-[2-chloro-4-(trifluoromethyl)phenoxy]phenyl]-N-[(trichloromethyl)thio]amino]carbonyl]benzamide], in assay [1], the “Toxicity Index S.l.” value was 1800. In addition, in assay [2], the “Toxicity Index S.l.ov.” value came out at 0. Moreover, the “Toxicity Index A.a.” value in the assay with Aedes aegypti larvae worked out at 55.
Taken in the same sequence, the figures for `O=C(NC(=O)N(Sc1ccc([N+](=O)[O-])cc1[N+](=O)[O-])c1ccc(OC(F)(F)F)cc1)c1ccccc1Cl` [Example 2, 2-Chloro-N-[[[4-(trifluoromethoxy)phenyl]-N-[(2,4-dinitrophenyl)thio]amino]carbonyl]benzamide] were 150, 3300 and 82.
Taken in the same sequence, the figures for `O=C(NC(=O)N(Sc1ccc(Br)cc1)c1ccc(C(F)(F)F)cc1)c1c(F)cccc1F` [Example 19] were 240, 1500 and 10.
`O=C(NC(=O)N(Sc1ccccc1)c1ccc(C(F)(F)F)cc1)c1c(F)cccc1F` [Example 15]: the “Toxicity Index S.l.” value in assay [1] came to 170. For the same molecule, the “Toxicity Index S.l.ov.” value in assay [2] stood at 1800. The “Toxicity Index A.a.” value in the assay on Aedes aegypti larvae is 50.
Taken in the same sequence, the figures for `Cc1ccc(SN(C(=O)NC(=O)c2ccccc2Cl)c2ccc(Oc3ccc(C(F)(F)F)cc3Cl)cc2)cc1` [Example 34] were 1200, 0 and 130.
Consider `Cc1cccc(SN(C(=O)NC(=O)c2c(F)cccc2F)c2ccc(Cl)cc2)c1` [Example 10], for which the “Toxicity Index S.l.” value in assay [1] was 20. The “Toxicity Index S.l.ov.” value in assay [2] is 1400. In addition, the “Toxicity Index A.a.” value with Aedes aegypti larvae amounted to 24.
For `O=C(NC(=O)N(Sc1ccc([N+](=O)[O-])cc1[N+](=O)[O-])c1ccc(Cl)cc1)c1c(F)cccc1F` [Example 13], the “Toxicity Index S.l.” value in assay [1] came out at 35. Moreover, the “Toxicity Index S.l.ov.” value in assay [2] was 1800. In addition, in the assay on Aedes aegypti larvae, the “Toxicity Index A.a.” value is reported as 100.
Turning to `O=C(NC(=O)N(Sc1ccc(Cl)cc1)c1ccc(OC(F)(F)F)cc1)c1ccccc1Cl` [Example 33], the “Toxicity Index S.l.” value in assay [1] was found to be 57. Further, the “Toxicity Index S.l.ov.” value in assay [2] amounted to 1300. The “Toxicity Index A.a.” value in the assay with Aedes aegypti larvae is 44.
For `Cc1ccccc1SN(C(=O)NC(=O)c1c(F)cccc1F)c1ccc(C(F)(F)F)cc1` [Example 16], in assay [1], the “Toxicity Index S.l.” value was found to be 550. Moreover, the “Toxicity Index S.l.ov.” value in assay [2] is given as 2700.
Turning to `Cc1cccc(SN(C(=O)NC(=O)c2c(F)cccc2F)c2ccc(C(F)(F)F)cc2)c1` [Example 17], the “Toxicity Index S.l.” value in assay [1] is on record as 260. In assay [2], the “Toxicity Index S.l.ov.” value is recorded as 2800. In addition, in the assay on Aedes aegypti larvae, the “Toxicity Index A.a.” value worked out at 160.
Taken in the same sequence, the figures for `O=C(NC(=O)N(Sc1ccc([N+](=O)[O-])cc1)c1ccc(Cl)cc1)c1c(F)cccc1F` [Example 28] were 54, 720 and 6.
Take `Cc1ccc(SN(C(=O)NC(=O)c2c(F)cccc2F)c2ccc(C(F)(F)F)cc2)cc1` [Example 18]: in assay [1], the “Toxicity Index S.l.” value amounted to 300. In addition, the “Toxicity Index S.l.ov.” value in assay [2] is on record as 2300. In addition, the “Toxicity Index A.a.” value in the assay with Aedes aegypti larvae stood at 170.
Take `CC(C)c1ccccc1SN(C(=O)NC(=O)c1ccccc1Cl)c1ccc(OC(F)(F)F)cc1` [Example 32]: the “Toxicity Index S.l.” value in assay [1] came out at 88. In addition, the “Toxicity Index S.l.ov.” value in assay [2] was 2000. Besides, the “Toxicity Index A.a.” value in the assay on Aedes aegypti larvae is on record as 28.
As for `O=C(NC(=O)N(Sc1ccccc1[N+](=O)[O-])c1cc(Cl)c(Oc2ccc([N+](=O)[O-])cc2)c(Cl)c1)c1c(F)cccc1F` [Example 38], in assay [1], the “Toxicity Index S.l.” value turned out to be 330. The “Toxicity Index S.l.ov.” value in assay [2] amounted to 0. Also, in the assay on Aedes aegypti larvae, the “Toxicity Index A.a.” value was 30.
As for `O=C(NC(=O)N(Sc1ccc(Br)cc1)c1ccc(Cl)cc1)c1c(F)cccc1F` [Example 37], in assay [1], the “Toxicity Index S.l.” value is reported as 51. The “Toxicity Index S.l.ov.” value in assay [2] was determined as 850. Moreover, the “Toxicity Index A.a.” value in the assay with Aedes aegypti larvae turned out to be 26.
As to `O=C(NC(=O)N(SC(Cl)(Cl)Cl)c1ccc(Cl)cc1)c1c(F)cccc1F` [Example 14], the “Toxicity Index S.l.” value in assay [1] is listed as 10. Moreover, the “Toxicity Index S.l.ov.” value in assay [2] is listed as 560. Besides, the “Toxicity Index A.a.” value in the assay on Aedes aegypti larvae is recorded as 6.
With `O=C(NC(=O)N(Sc1ccc([N+](=O)[O-])cc1)c1ccc(C(F)(F)F)cc1)c1c(F)cccc1F` [Example 21], in assay [1], the “Toxicity Index S.l.” value came out at 96. Moreover, the “Toxicity Index A.a.” value with Aedes aegypti larvae was 13.
Regarding `O=C(NC(=O)N(Sc1ccc(Cl)cc1)c1ccc(Cl)cc1)c1c(F)cccc1F` [Example 12], the “Toxicity Index S.l.” value in assay [1] was determined as 17. Also, in the assay with Aedes aegypti larvae, the “Toxicity Index A.a.” value was 14.
